According to the supplement of paper PMC11451515:

Key:
Details in all cases: 48 h
P12-Ichikawa [1] = test: cell viability relative to DMSO control; higher = less cytotoxic
Procedure, shortened: (§1)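 In 1536-well plates, 5 μl of leukemia cells were seeded per well: 500 cells/well for NOMO1 or SEM and 1000 cells/well for P12-Ichikawa. Each line had first been adapted for at least four passages in each medium. Library compounds in DMSO were pin-dosed at 11 threefold concentrations between 47 μM and 0.79 nM, and CellTiter-Glo One luminescence was read after 48 h at 37°C. Viability is a per-plate percentage relative to DMSO wells, with cell-free wells as background.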

SEM cells [2] = test: as above
Procedure, shortened: as §1

NOMO1 = test: AUC of viability dose-response curve (% viability x log10 dose units); higher = less sensitive
Procedure, shortened: (§2)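 Leukemia cells adapted to each medium were seeded in 1536-well plates (500 or 1000 cells/well). They were dosed with library compounds in DMSO at 11 threefold doses, 47 μM to 0.79 nM, for 48 h at 37°C. CellTiter-Glo One luminescence was normalised per plate to DMSO and cell-free wells. Area under the curve was integrated by trapezoidal rule over log10 doses on a four-parameter log-logistic fit; curves exceeding full viability were scaled and curves failing quality control removed.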

P12-Ichikawa [3] = test: as above
Procedure, shortened: as §2

SEM cells [4] = test: as above
Procedure, shortened: as §2

O=C(c1ccc(F)cc1)N1CCC[C@H](c2nc(-c3ccc(F)cc3)no2)C1
cell viability [%]
Details | HPLM + 10% dialyzed FBS | RPMI 5 mM glucose + 10% FBS | RPMI 5 mM glucose + 10% dialyzed FBS
P12-Ichikawa [1], 0.000781 µM | 119 | 115 | 120
P12-Ichikawa [1], 0.00234 µM | 121 | 122 | 128
P12-Ichikawa [1], 0.00702 µM | 120 | 122 | 123
P12-Ichikawa [1], 0.0211 µM | 124 | 128 | 119
P12-Ichikawa [1], 0.0632 µM | 117 | 144 | 117
P12-Ichikawa [1], 0.19 µM | 121 | 120 | 126
P12-Ichikawa [1], 0.569 µM | 116 | 128 | 116
P12-Ichikawa [1], 1.71 µM | 113 | 116 | 105
P12-Ichikawa [1], 5.12 µM | 107 | 111 | 118
P12-Ichikawa [1], 15.4 µM | 113 | 114 | 110
P12-Ichikawa [1], 46.1 µM | 106 | 115 | 111
SEM cells [2], 0.000781 µM | 119 | 119 | 104
SEM cells [2], 0.00234 µM | 120 | 111 | 103
SEM cells [2], 0.00702 µM | 122 | 124 | 130
SEM cells [2], 0.0211 µM | 112 | 121 | 125
SEM cells [2], 0.0632 µM | 128 | 128 | 105
SEM cells [2], 0.19 µM | 114 | 117 | 116
SEM cells [2], 0.569 µM | 111 | 111 | 118
SEM cells [2], 1.71 µM | 104 | 112 | 113
SEM cells [2], 5.12 µM | 102 | 99.4 | 102
SEM cells [2], 15.4 µM | 105 | 106 | 101
SEM cells [2], 46.1 µM | 115 | 116 | 128

AUC of viability dose-response curve
Details | NOMO1 | P12-Ichikawa [3] | SEM cells [4]
HPLM + 10% dialyzed FBS | 467 | 460 | 453
RPMI 5 mM glucose + 10% FBS | 453 | 459 | 455
RPMI 5 mM glucose + 10% dialyzed FBS | 472 | 459 | 475

O=C(NCC1CCCCN1)c1cc(OCC(F)(F)F)ccc1OCC(F)(F)F (stereo unspecified)
cell viability [%], SEM cells [2]
Details | HPLM + 10% dialyzed FBS | RPMI 5 mM glucose + 10% FBS
0.000781 µM | 104 | 117
0.00234 µM | 130 | 115
0.00702 µM | 115 | 124
0.0211 µM | 128 | 137
0.0632 µM | 130 | 121
0.19 µM | 151 | 127
0.569 µM | 130 | 131
1.71 µM | 140 | 128
5.12 µM | 115 | 120
15.4 µM | 118 | 121
46.1 µM | 43.7 | 61.9

AUC of viability dose-response curve
Details | NOMO1 | P12-Ichikawa [3] | SEM cells [4]
HPLM + 10% dialyzed FBS | 326 | 352 | 457
RPMI 5 mM glucose + 10% FBS | 304 | 353 | 464
RPMI 5 mM glucose + 10% dialyzed FBS | 317 | 375 | 468

Cc1cc(Nc2cc(NC(=O)c3c(Cl)cccc3Cl)ccn2)nc(N)n1
SEM cells [2], HPLM + 10% dialyzed FBS
Details | cell viability [%]
0.000781 µM | 112
0.00234 µM | 123
0.00702 µM | 126
0.0211 µM | 124
0.0632 µM | 128
0.19 µM | 128
0.569 µM | 113
1.71 µM | 61.3
5.12 µM | 40.9
15.4 µM | 37.9
46.1 µM | 40.2

AUC of viability dose-response curve
Details | NOMO1 | P12-Ichikawa [3] | SEM cells [4]
HPLM + 10% dialyzed FBS | 373 | 364 | 368
RPMI 5 mM glucose + 10% FBS | 391 | 364 | 391
RPMI 5 mM glucose + 10% dialyzed FBS | 359 | 346 | 341

C=C1/C(=C\C=C2/CCC[C@]3(C)[C@@H]([C@H](C)CCCC(C)(C)O)CC[C@@H]23)C[C@@H](O)C[C@@H]1O
Details | cell viability [%]
P12-Ichikawa [1], HPLM + 10% dialyzed FBS, 0.000781 µM | 122
P12-Ichikawa [1], HPLM + 10% dialyzed FBS, 0.00234 µM | 126
P12-Ichikawa [1], HPLM + 10% dialyzed FBS, 0.00702 µM | 118
P12-Ichikawa [1], HPLM + 10% dialyzed FBS, 0.0211 µM | 131
P12-Ichikawa [1], HPLM + 10% dialyzed FBS, 0.0632 µM | 124
P12-Ichikawa [1], HPLM + 10% dialyzed FBS, 0.19 µM | 123
P12-Ichikawa [1], HPLM + 10% dialyzed FBS, 0.569 µM | 120
P12-Ichikawa [1], HPLM + 10% dialyzed FBS, 1.71 µM | 117
P12-Ichikawa [1], HPLM + 10% dialyzed FBS, 15.4 µM | 118
P12-Ichikawa [1], HPLM + 10% dialyzed FBS, 46.1 µM | 90.4
SEM cells [2], RPMI 5 mM glucose + 10% FBS, 0.000781 µM | 105
SEM cells [2], RPMI 5 mM glucose + 10% FBS, 0.00234 µM | 120
SEM cells [2], RPMI 5 mM glucose + 10% FBS, 0.00702 µM | 117
SEM cells [2], RPMI 5 mM glucose + 10% FBS, 0.0211 µM | 113
SEM cells [2], RPMI 5 mM glucose + 10% FBS, 0.0632 µM | 123
SEM cells [2], RPMI 5 mM glucose + 10% FBS, 0.19 µM | 110
SEM cells [2], RPMI 5 mM glucose + 10% FBS, 0.569 µM | 126
SEM cells [2], RPMI 5 mM glucose + 10% FBS, 1.71 µM | 113
SEM cells [2], RPMI 5 mM glucose + 10% FBS, 5.12 µM | 92.9
SEM cells [2], RPMI 5 mM glucose + 10% FBS, 15.4 µM | 98.7
SEM cells [2], RPMI 5 mM glucose + 10% FBS, 46.1 µM | 57.2

AUC of viability dose-response curve
Details | NOMO1 | P12-Ichikawa [3] | SEM cells [4]
HPLM + 10% dialyzed FBS | 440 | 454 | 459
RPMI 5 mM glucose + 10% FBS | 448 | 445 | 449
RPMI 5 mM glucose + 10% dialyzed FBS | 448 | 458 | 450
